Like-named read-outs stand apart in the source and are kept apart here.
How the values were obtained:
CYP1A2 = target: T1, CYP1A2 (Homo sapiens, UniProt P05177); assay: CYP450 enzyme inhibition in liver microsomes (cocktail probe incubation); assay type: in vitro ADME; conditions: species not given, 0.05-50 μM tested
T1 construct: studied in liver microsomes of CD-1 mouse, Sprague Dawley rat, Beagle dog, cynomolgus monkey, and human; from tissue; host or cells: liver microsomes
T1 sequence (P05177 1-516): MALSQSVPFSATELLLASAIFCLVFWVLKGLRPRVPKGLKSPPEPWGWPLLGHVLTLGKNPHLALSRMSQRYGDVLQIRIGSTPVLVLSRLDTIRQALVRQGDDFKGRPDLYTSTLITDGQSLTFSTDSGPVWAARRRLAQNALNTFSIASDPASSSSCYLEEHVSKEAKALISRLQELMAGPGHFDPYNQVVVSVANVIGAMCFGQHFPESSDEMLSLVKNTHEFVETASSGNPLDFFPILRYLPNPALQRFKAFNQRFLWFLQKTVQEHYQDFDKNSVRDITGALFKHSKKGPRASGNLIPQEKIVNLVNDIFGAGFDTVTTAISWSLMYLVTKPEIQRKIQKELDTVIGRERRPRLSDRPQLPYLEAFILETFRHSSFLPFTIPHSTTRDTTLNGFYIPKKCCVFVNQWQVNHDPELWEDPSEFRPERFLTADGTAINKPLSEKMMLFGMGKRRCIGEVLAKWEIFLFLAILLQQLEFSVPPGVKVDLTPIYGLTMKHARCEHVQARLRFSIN
In short: (§1)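 Liver microsomes (CD-1 mouse, SD rat, Beagle dog, cynomolgus monkey, human) incubated with a cocktail of CYP-specific probe substrates. Test compounds at seven concentrations (0.05, 0.15, 0.5, 1.5, 5, 15, 50 μM). Known inhibitors included as positive controls at a single concentration above their IC50.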

CYP3A4 = target: T2, CYP3A4 (Homo sapiens, UniProt P08684); assay: as above; assay type: in vitro ADME; conditions: species not given, 0.05-50 μM tested
T2 construct: studied in liver microsomes of CD-1 mouse, Sprague Dawley rat, Beagle dog, cynomolgus monkey, and human; from tissue; host or cells: liver microsomes
T2 sequence (P08684 whole entry): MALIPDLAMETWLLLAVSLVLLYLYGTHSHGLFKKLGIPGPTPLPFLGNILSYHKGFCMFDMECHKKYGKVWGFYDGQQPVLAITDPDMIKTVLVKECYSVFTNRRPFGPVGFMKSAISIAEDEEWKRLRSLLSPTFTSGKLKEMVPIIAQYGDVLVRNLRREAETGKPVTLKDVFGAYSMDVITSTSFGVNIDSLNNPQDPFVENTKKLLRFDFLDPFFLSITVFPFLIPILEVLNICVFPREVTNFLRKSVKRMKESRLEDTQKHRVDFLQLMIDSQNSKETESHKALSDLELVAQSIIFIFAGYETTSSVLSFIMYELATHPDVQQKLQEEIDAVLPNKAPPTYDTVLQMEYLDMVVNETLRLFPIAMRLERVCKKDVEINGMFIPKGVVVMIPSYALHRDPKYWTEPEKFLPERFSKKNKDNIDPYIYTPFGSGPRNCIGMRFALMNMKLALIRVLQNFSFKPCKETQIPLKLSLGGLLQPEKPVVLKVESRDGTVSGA
In short: as §1

CYP2C9 = target: T3, CYP2C9 (Homo sapiens, UniProt P11712); assay: as above; assay type: in vitro ADME; conditions: species not given, 0.05-50 μM tested
T3 construct: studied in liver microsomes of CD-1 mouse, Sprague Dawley rat, Beagle dog, cynomolgus monkey, and human; from tissue; host or cells: liver microsomes
T3 sequence (P11712 whole entry): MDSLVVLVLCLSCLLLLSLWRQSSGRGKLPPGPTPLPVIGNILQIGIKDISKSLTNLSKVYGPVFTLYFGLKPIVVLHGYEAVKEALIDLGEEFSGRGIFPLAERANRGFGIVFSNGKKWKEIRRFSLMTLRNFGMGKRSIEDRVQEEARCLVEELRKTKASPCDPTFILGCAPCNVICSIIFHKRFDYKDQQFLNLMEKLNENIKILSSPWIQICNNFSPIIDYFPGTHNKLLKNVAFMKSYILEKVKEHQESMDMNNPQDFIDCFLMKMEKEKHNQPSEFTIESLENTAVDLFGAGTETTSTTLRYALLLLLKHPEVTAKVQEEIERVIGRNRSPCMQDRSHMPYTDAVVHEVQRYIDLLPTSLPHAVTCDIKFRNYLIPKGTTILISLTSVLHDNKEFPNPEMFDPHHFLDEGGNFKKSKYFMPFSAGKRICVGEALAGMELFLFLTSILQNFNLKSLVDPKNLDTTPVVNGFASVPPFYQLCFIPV
In short: as §1

CYP2D6 = target: T4, CYP2D6 (Homo sapiens, UniProt P10635); assay: as above; assay type: in vitro ADME; conditions: species not given, 0.05-50 μM tested
T4 construct: studied in liver microsomes of CD-1 mouse, Sprague Dawley rat, Beagle dog, cynomolgus monkey, and human; from tissue; host or cells: liver microsomes
T4 sequence (P10635 whole entry): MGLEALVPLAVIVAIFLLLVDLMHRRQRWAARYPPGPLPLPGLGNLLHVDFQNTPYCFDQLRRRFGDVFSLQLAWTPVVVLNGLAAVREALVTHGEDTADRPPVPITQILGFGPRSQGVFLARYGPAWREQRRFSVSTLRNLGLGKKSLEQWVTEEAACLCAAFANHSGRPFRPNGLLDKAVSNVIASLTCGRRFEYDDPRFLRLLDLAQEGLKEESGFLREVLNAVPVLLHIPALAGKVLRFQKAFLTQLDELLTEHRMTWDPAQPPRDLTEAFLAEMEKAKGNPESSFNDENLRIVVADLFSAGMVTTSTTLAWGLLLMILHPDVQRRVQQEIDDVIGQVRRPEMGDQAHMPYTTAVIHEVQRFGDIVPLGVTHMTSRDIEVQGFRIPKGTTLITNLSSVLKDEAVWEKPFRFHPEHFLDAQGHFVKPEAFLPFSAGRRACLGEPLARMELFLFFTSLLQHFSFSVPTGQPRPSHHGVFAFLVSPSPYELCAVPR
In short: as §1

CYP2C19 = target: T5, CYP2C19 (Homo sapiens, UniProt P33261); assay: as above; assay type: in vitro ADME; conditions: species not given, 0.05-50 μM tested
T5 construct: studied in liver microsomes of CD-1 mouse, Sprague Dawley rat, Beagle dog, cynomolgus monkey, and human; from tissue; host or cells: liver microsomes
T5 sequence (P33261 whole entry): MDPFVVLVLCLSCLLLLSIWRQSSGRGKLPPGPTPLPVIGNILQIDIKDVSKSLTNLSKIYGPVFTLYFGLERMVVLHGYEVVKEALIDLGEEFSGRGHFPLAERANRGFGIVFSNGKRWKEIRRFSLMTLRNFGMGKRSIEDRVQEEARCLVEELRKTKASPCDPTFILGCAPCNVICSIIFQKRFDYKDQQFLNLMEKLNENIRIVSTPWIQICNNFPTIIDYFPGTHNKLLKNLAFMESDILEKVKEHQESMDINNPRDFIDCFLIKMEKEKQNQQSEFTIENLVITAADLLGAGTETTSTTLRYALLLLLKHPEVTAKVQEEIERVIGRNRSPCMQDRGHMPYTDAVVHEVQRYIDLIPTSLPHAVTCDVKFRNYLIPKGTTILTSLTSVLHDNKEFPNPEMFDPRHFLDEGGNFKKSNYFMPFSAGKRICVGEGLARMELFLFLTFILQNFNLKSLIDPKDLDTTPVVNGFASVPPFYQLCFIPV
In short: as §1

[1] = Metabolic stability in human liver microsomes; assay type: in vitro ADME
Protocol: (§2) The metabolic stability of test compounds was examined in CD-1 mouse, Sprague Dawley rat, Beagle dog, cynomolgus monkey, and human liver microsomes. Test compound (final concentration 1 μM) was mixed with diluted liver microsomes from each of the 5 species and a small aliquot was taken at 0, 5, 10, 20, 30, and 60 minutes for LC/MS/MS analysis. Intrinsic clearance and half-life were calculated.

[2] = Metabolic stability in rat liver microsomes; assay type: in vitro ADME; conditions: Sprague Dawley
Protocol: as §2

[3] = test system: IFNγ-induced NO production in Raw 264.7 cells; assay: Nitric oxide assay: suppression of IFNγ-induced NO production (Griess nitrite, adjusted to live cell numbers); assay type: cell-based; conditions: Mus musculus, RAW264.7, 2 h pretreatment, IFNγ 10 ng/ml for 24 hours
In short: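 Raw 264.7 cells in DMEM + 2% FBS were pretreated 2 h with compound (10-point, 1:4 dilution from 100 nM), then stimulated with 10 ng/ml mouse IFNγ for 24 h. Media nitrite was read by Griess and normalised to CellTiter-Glo viability. IC50 from four-parameter fit of % inhibition.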

[4] = Metabolic stability in monkey liver microsomes; assay type: in vitro ADME, cynomolgus monkey
Protocol: as §2

NQO1 = NQO1 activity assay in Raw264.7 cell lysates; assay type: cell-based; conditions: Mus musculus; Raw264.7 cells, 48 hours treatment
Protocol: Raw264.7 cells were seeded in DMEM+10% FBS in 96-well plates at a density of 10,000 cells per well. 6 hours after plating, cells were treated with DMSO or test compounds (top dose 100 nM, 1:4 serial dilution, 8-point) for 48 hours. NQO1 activity was then detected in cell lysates using NQO1 activity assay kit (Abeam, Cat#ab184867). NQO1 activity was then plotted against compound concentration, and EC50 values were calculated using four-parameter algorithm in Graphpad Prism.

[5] = Metabolic stability in dog liver microsomes; assay type: in vitro ADME; conditions: Beagle
Protocol: as §2

[6] = Metabolic stability in mouse liver microsomes; assay type: in vitro ADME, CD-1 mouse; conditions: CD-1
Protocol: as §2

[7] = Pharmacokinetic studies in Sprague Dawley rats (oral gavage and IV); assay type: in vivo; conditions: rat, male SD rats, plasma; for AUC(0-t): read-out: AUC0-24 h; for bioavailability: oral 5 mg/kg vs IV 1 mg/kg, read-out: Bioavailibility F %
Protocol: The pharmacokinetics of test compounds was evaluated in male SD rats when administered via oral gavage and IV injection. For oral dosing, compound was formulated in 0.5% methylcellulose and administered at doses of 5 mg/kg (3 rats per dose level) and volume of 10 mL/kg. For IV dosing, compound was formulated in 5% DMSO/5% Solutol/90% saline and administered to 3 rats at a dose of 1 mg/kg and a volume of 5 mL/kg. The rats were fasted overnight before administration. Plasma samples were collected predose and at 0.5, 1, 3, 6, 9, 12, and 24 hours postdose. The samples were analyzed by LC/MS/MS and the concentration of test compound at each timepoint was determined by linear regression. Pharmacokinetic parameters were calculated from the plasma concentrations using Pheonix WinNonlin.

Compound | IC50 (CYP1A2) | IC50 (CYP3A4) | IC50 (CYP2C9) | IC50 (CYP2D6) | IC50 (CYP2C19) | CLint scaled at 1 μM [1] | half-life at 1 μM [1] | CLint scaled at 1 μM [2] | half-life at 1 μM [2] | IC50 [3] | CLint scaled at 1 μM [4] | half-life at 1 μM [4] | EC50 (NQO1) | CLint scaled at 1 μM [5] | half-life at 1 μM [5] | CLint scaled at 1 μM [6] | half-life at 1 μM [6] | C0 ([7]; IV (1 mg/kg)) | clearance ([7]; IV (1 mg/kg)) | half-life ([7]; IV (1 mg/kg)) | further results
COC(=O)[C@]12CCC(C)(C)C[C@H]1[C@H]1C(=O)C=C3[C@@]4(C)C=C(C#N)C(=O)C(C)(C)[C@@H]4CC[C@@]3(C)[C@]1(C)CC2 [Control, reference compound] | > 50 µM | 2.6 µM | 1.7 µM | > 50 µM | 5.2 µM | 95.4 mL/min/kg | 13.1 min | 832 mL/min/kg | 3 min | < 0.01 µM | 949 mL/min/kg | 2 min | < 0.01 µM | 78 mL/min/kg | 25.6 min | 180 mL/min/kg | 30.6 min | 365 ng/mL | 56.8 mL/min/kg | 378 min | AUC(0-t) ([7]; IV (1 mg/kg)): 291 ng·h/mL; Cmax ([7]; Oral (5 mg/kg)): 7 ng/mL; half-life ([7]; Oral (5 mg/kg)): 204 min; AUC(0-t) ([7]; Oral (5 mg/kg)): 26 ng·h/mL; bioavailability [7]: 1.8%
CC1(C)C(=O)C(C#N)=C[C@]2(C)C3=CC(=O)[C@@H]4[C@@H]5C[C@@](C)(C#N)CC[C@]5(C)CC[C@@]4(C)[C@]3(C)CC[C@@H]12 [Example 2, (2S,4aS,6aR,6bS,8aR,12aS,14aR,14bS)-2,4a,6a,6b,9,9,12a-heptamethyl-10,14-dioxo-1,2,3,4,4a,5,6,6a,6b,7,8,8a,9,10,12a,14,14a,14b-octadecahydropicene-2,11-dicarbonitrile] | > 50 µM | 1.7 µM | 2.2 µM | 20.2 µM | 25.4 µM | 397 mL/min/kg | 3.1 min | 157 mL/min/kg | 15.9 min |  | 782 mL/min/kg | 2.4 min | < 0.01 µM | 313 mL/min/kg | 6.4 min | 1750 mL/min/kg | 3.1 min | 500 ng/mL | 53 mL/min/kg | 72 min | AUC(0-t) ([7]; IV (1 mg/kg)): 314 ng·h/mL; Cmax ([7]; Oral (5 mg/kg)): 177 ng/mL; half-life ([7]; Oral (5 mg/kg)): 78 min; AUC(0-t) ([7]; Oral (5 mg/kg)): 521 ng·h/mL; bioavailability [7]: 33.2%
CC1(C)C(=O)C(C#N)=C[C@]2(C)C3=CC(=O)[C@@H]4[C@@H]5C[C@@](C)(c6nnc(C(N)=O)o6)CC[C@]5(C)CC[C@@]4(C)[C@]3(C)CC[C@@H]12 [Example 25, 5-((2S,4aS,6aR,6bS,8aR,12aS,14aR,14bS)-11-cyano-2,4a,6a,6b,9,9,12a-heptamethyl-10,14-dioxo-1,2,3,4,4a,5,6,6a,6b,7,8,8a,9,10,12a,14,14a,14b-octadecahydropicen-2-yl)-1,3,4-oxadiazole-2-carboxamide] | > 50 µM | 6.6 µM | 6.9 µM | > 50 µM | > 50 µM | 96.2 mL/min/kg | 13 min | 87.2 mL/min/kg | 28.6 min | < 0.01 µM | 294 mL/min/kg | 6.4 min | 0.01 to 0.1 µM | 58.4 mL/min/kg | 34.2 min | 289 mL/min/kg | 19 min | 1300 ng/mL | 63.3 mL/min/kg | 84 min | AUC(0-t) ([7]; IV (1 mg/kg)): 263 ng·h/mL; Cmax ([7]; Oral (5 mg/kg)): 32 ng/mL; half-life ([7]; Oral (5 mg/kg)): 78 min; AUC(0-t) ([7]; Oral (5 mg/kg)): 102 ng·h/mL; bioavailability [7]: 7.8%
CNC(=NC#N)NC[C@]12CCC(C)(C)C[C@H]1[C@H]1C(=O)C=C3[C@@]4(C)C=C(C#N)C(=O)C(C)(C)[C@@H]4CC[C@@]3(C)[C@]1(C)CC2 [Example 3, 2-cyano-1-(((4aS,6aR,6bS,8aR,12aS,14aR,14bS)-11-cyano-2,2,6a,6b,9,9,12a-heptamethyl-10,14-dioxo-1,3,4,5,6,6a,6b,7,8,8a,9,10,12a,14,14a,14b-hexadecahydropicen-4a(2H)-yl)methyl)-3-methylguanidine] | > 50 µM | 6.7 µM | 3.4 µM | 4.7 µM | 17.8 µM | 50.7 mL/min/kg | 24.6 min | 50.3 mL/min/kg | 49.6 min | < 0.01 µM | 156 mL/min/kg | 12 min | 0.01 to 0.1 µM | 81.6 mL/min/kg | 24.5 min | 150 mL/min/kg | 36.5 min |  |  |  | 
CC1(C)C(=O)C(C#N)=C[C@]2(C)C3=CC(=O)[C@@H]4[C@@H]5C[C@@](C)(N6CCC(O)C6)CC[C@]5(C)CC[C@@]4(C)[C@]3(C)CC[C@@H]12 (stereo partly drawn) [Example 20, (4aR,6aS,6bR,8aS,11S,12aS,12bR,14bS)-11-(3-hydroxypyrrolidin-1-yl)-4,4,6a,6b,8a,11,14b-heptamethyl-3,13-dioxo-3,4,4a,5,6,6a,6b,7,8,8a,9,10,11,12,12a,12b,13,14b-octadecahydropicene-2-carbonitrile] | > 50 µM | 3.2 µM | 8.6 µM | > 50 µM | 18.9 µM |  |  |  |  | < 0.01 µM |  |  | < 0.01 µM |  |  |  |  |  |  |  | 

From patent publication US20220017566A1, “TERPINOID DERIVATIVES AND USES THEREOF” (SICHUAN HAISCO PHARMACEUTICAL CO., LTD., priority 2018, published 2022)
